In patent US20050287514A1, “Compositions and methods useful for HCV infection” (Vertex Pharmaceuticals Incorporated, priority 2003, published 2005):

Test system: HCV
Assay: Inhibition of HCV infection of cryopreserved human fetal liver cells (cell-associated HCV RNA by multiplex RT-PCR)
Format: cell-based
Conditions: VX-950 at 0.2 uM or greater; cryopreserved human fetal liver cells in HDM2; 15 hours inoculation plus additional 47 hours incubation
Procedure: FIG. 3 depicts the inhibition of HCV infection of cryopreserved human fetal liver cells by the HCV NS3·4a protease inhibitor VX-950 (see WO 02/18369).
Cryopreserved human fetal liver cells were thawed and allowed to adhere to wells of a collagen coated 96-well plate for 6 hours at 37° C. Non-adherent cells were removed and medium replaced with hormonally defined medium containing DMEM, BSA, nicotinamide, EGF, insulin, transferrin, and hydrocortisone (HDM2). The wells were inoculated with HCV in the presence of different concentrations of VX-950 and incubated for 15 hours at 37° C. The non-adsorbed virus was removed, the cultures washed twice with DMEM, then fresh HDM2 containing the same concentration of VX-950 was added. After incubation for an additional 47 hours, the wells were rinsed twice with PBS then the cells lysed with chaotropic buffer and RNA isolated using the Qiagen 96-well RNeasy procedure. HCV RNA was quantitated using the multiplex RT-PCR method and the mean and standard deviation of the triplicate samples at each concentration of inhibitor are presented (HCV copy number per well). […] See, FIG. 3.

CCC[C@H](NC(=O)C1[C@H]2CCC[C@H]2CN1C(=O)[C@@H](NC(=O)[C@@H](NC(=O)c1cnccn1)C1CCCCC1)C(C)(C)C)C(=O)C(=O)NC1CC1 (stereo partly shown) [VX-950]
inhibition of HCV replication (HCV RNA copy number per well): nearly complete inhibition of HCV replication
